Converted amounts (≈) assume the structure as drawn. The source made the active and inactive calls. The rule behind the calls is not given here. Some results are limits rather than exact numbers.

Tested on in the first data set: not listed separately
Briefly: Metabolic stability in mouse liver microsomes assessed as half-life.
Conditions: not given
Type of data set: ADME, Microsome.
Regarding `CCOC(=O)c1ccc(NC2CCCCC2)c(N)c1`, the half-life was 2.7 min.
Same read-out and setting: the result for `CCNC(=O)c1ccc(NC2CCCCC2)c(NC(=O)/C=C/c2cc(OC)c(OC)cc2OC)c1` reads 31.4 min; that for `CCNC(=O)c1ccc(NC2CCCCC2)c(NCc2ccccc2)c1`, 19.6 min.

The test system of the next data set is HUVEC. Put plainly: Anti-ferroptosis activity against erastin-induced ferroptosis in HUVEC cells assessed as decrease in free ferrous ion level at 10 uM incubated for 24 hrs by Ferro orange fluorescent probe based assay. The class given is functional, cell-based. The settings on record: Homo sapiens.
For `CCOC(=O)c1ccc(NC2CCCCC2)c(N)c1`, the result was Active.
With `CCNC(=O)c1ccc(NC2CCCCC2)c(NC(=O)/C=C/c2cc(OC)c(OC)cc2OC)c1`, the Activity entry is “Active; Higher Effectiveness Compared To Ferrostatin-1”.

A further data set deals with HUVEC. Briefly: Anti-ferroptosis activity against […]-induced ferroptosis in HUVEC cells assessed as increase in cell viability incubated for 24 hrs by SRB assay. The class given is functional, cell-based. The settings on record: Homo sapiens.
With `CCNC(=O)c1ccc(NC2CCCCC2)c(NC(=O)/C=C/c2ccccc2OC)c1`, the EC50 turned out to be 1100 nM.
Consider `CCNC(=O)c1ccc(NC2CCCCC2)c(NC(=O)/C=C/c2cc(OC)c(OC)cc2OC)c1`, for which the EC50 was 580 nM.
As for `CCNC(=O)c1ccc(NC2CCCCC2)c(NC(=O)/C=C/c2ccccc2)c1`, the 50% effective concentration (EC50) amounted to 900 nM.
Still for that read-out and setting: then `CCNC(=O)c1ccc(NC2CCCCC2)c(NC(=O)Cc2ccc(OC)cc2)c1`, with 980 nM.
For the compound `CCNC(=O)c1ccc(NC2CCCCC2)c(NCc2ccccc2)c1`, the EC50 came out at 6200 nM.
Consider `CCNC(=O)c1ccc(NC2CCCCC2)c(NC(=O)Cc2cc(F)c(F)cc2Br)c1`, for which the EC50 is 810 nM.
Consider `CCNC(=O)c1ccc(NC2CCCCC2)c(NC(=O)C(c2ccccc2)c2ccccc2)c1`, for which the concentration for a half-maximal effect (EC50) amounted to 1000 nM.

In another data set the test system is HUVEC. Briefly: Anti-ferroptosis activity against erastin-induced ferroptosis in HUVEC cells assessed as upregulation of intracellular GPX4 level at 10 uM incubated for 24 hrs by Western blot analysis. Type of data set: functional, cell-based. Particulars: Homo sapiens.
`CCOC(=O)c1ccc(NC2CCCCC2)c(N)c1`: the result was Active.
As to `CCNC(=O)c1ccc(NC2CCCCC2)c(NC(=O)/C=C/c2cc(OC)c(OC)cc2OC)c1`, the result was Active.

Another data set relates to HUVEC. Put plainly: Anti-ferroptosis activity against erastin-induced ferroptosis in HUVEC cells assessed as reduction in accumulation of lipid peroxidation at 10 uM incubated for 24 hrs by LPO assay. The class given is functional, cell-based. The settings on record: Homo sapiens.
As to `CCOC(=O)c1ccc(NC2CCCCC2)c(N)c1`, the outcome was Active.
In the case of `CCNC(=O)c1ccc(NC2CCCCC2)c(NC(=O)/C=C/c2cc(OC)c(OC)cc2OC)c1`, the result was Active.

For the next data set, the system named is HUVEC. Briefly: Anti-ferroptosis activity against erastin-induced ferroptosis in HUVEC cells assessed as decrease in intracellular lipid ROS level at 10 uM incubated for 24 hrs by BODIPY 581/591 dye based assay. The class given is functional, cell-based. The settings on record: Homo sapiens.
For `CCOC(=O)c1ccc(NC2CCCCC2)c(N)c1`, the outcome was Active.
With `CCNC(=O)c1ccc(NC2CCCCC2)c(NC(=O)/C=C/c2cc(OC)c(OC)cc2OC)c1`, the outcome was Active.

The test system of a further data set is HUVEC. Put plainly: Anti-ferroptosis activity against erastin-induced ferroptosis in HUVEC cells assessed as reduction in malondialdehyde content at 10 uM incubated for 24 hrs by lipid peroxidation MDA assay. Type of data set: functional, cell-based. The settings on record: Homo sapiens.
Regarding `CCOC(=O)c1ccc(NC2CCCCC2)c(N)c1`, the outcome was Active.
For `CCNC(=O)c1ccc(NC2CCCCC2)c(NC(=O)/C=C/c2cc(OC)c(OC)cc2OC)c1`, the result was Active.

Tested on in another data set: not listed separately
Briefly: Kinetic solubility of compound. Particulars: read-out: Kinetic_solubility. The class given is physicochemical.
As for `CCOC(=O)c1ccc(NC2CCCCC2)c(N)c1`, the solubility kinetic is more than 200 µM.
Same read-out and setting: the result for `CCNC(=O)c1ccc(NC2CCCCC2)c(NC(=O)/C=C/c2cc(OC)c(OC)cc2OC)c1` reads 33.3 µM (≈ 16 µg/mL).
The same measure, in the same setting: then `CCNC(=O)c1ccc(NC2CCCCC2)c(NCc2ccccc2)c1`, with 50 µM (≈ 17.6 µg/mL).

The subject of the next data set is HUVEC. Briefly: Anti-ferroptosis activity against […]-induced ferroptosis in HUVEC cells assessed as increase in cell viability at 10 uM incubated for 24 hrs by SRB assay. The class given is functional, cell-based. The settings on record: Homo sapiens.
Consider `CCNC(=O)c1ccc(NC2CCCCC2)c(NC(=O)/C=C/c2ccccc2OC)c1`, for which the Activity result is recorded as “Active; Compound Exhibited Comparable Activity To Ferrostatin-1”.
Still for that read-out and setting: then `CCNC(=O)c1ccc(NC2CCCCC2)c(NC(=O)/C=C/c2ccc(O)c(OC)c2)c1`, with “Active”; and `CCOC(=O)c1ccc(NC2CCCCC2)c(N)c1`, with “Active”; and `CCNC(=O)c1ccc(NC2CCCCC2)c(NC(=O)/C=C/c2cc(OC)c(OC)cc2OC)c1`, with “Active; Compound Exhibited Comparable Activity To Ferrostatin-1; Most Significant Efficacy Observed”.
The same measure, in the same setting: then `CCNC(=O)c1ccc(NC2CCCCC2)c(NC(=O)/C=C/c2ccccc2)c1`, with “Active; Compound Exhibited Comparable Activity To Ferrostatin-1”; and `CCNC(=O)c1ccc(NC2CCCCC2)c(NC(=O)/C=C/c2cccc(OC)c2OC)c1`, with “Active”.
On the same count and under the same terms, the result for `CCNC(=O)c1ccc(NC2CCCCC2)c(NC(=O)Cc2ccc(OC)cc2)c1` reads “Active; Compound Exhibited Comparable Activity To Ferrostatin-1”; that for `CCNC(=O)c1ccc(NC2CCCCC2)c(NCc2ccccc2)c1`, “Active; Compound Exhibited Comparable Activity To Ferrostatin-1”; that for `CCNC(=O)c1ccc(NC2CCCCC2)c(NC(=O)Cc2cc(F)c(F)cc2Br)c1`, “Active; Compound Exhibited Comparable Activity To Ferrostatin-1”.
Turning to `CCNC(=O)c1ccc(NC2CCCCC2)c(NC(=O)Cc2cc(Br)cc(Br)c2)c1`, the outcome was Active.
The same measure, in the same setting: then `CCNC(=O)c1ccc(NC2CCCCC2)c(NC(=O)C(c2ccccc2)c2ccccc2)c1`, with “Active; Compound Exhibited Comparable Activity To Ferrostatin-1”; and `CCNC(=O)c1ccc(NC2CCCCC2)c(NC(=O)Cc2cc(Br)ccc2F)c1`, with “Active”.
Consider `CCNC(=O)c1ccc(NC2CCCCC2)c(NC(=O)Cc2ccc(F)cc2)c1`, for which the outcome was Active.
On to `CCNC(=O)c1ccc(NC2CCCCC2)c(NC(=O)Cc2ccc(OC)c(OC)c2)c1`, for which the outcome was Active.
Consider `CCNC(=O)c1ccc(NC2CCCCC2)c(NC(=O)/C=C/c2cccc(Br)c2)c1`, for which the outcome was Active.
For the compound `CCNC(=O)c1ccc(NC2CCCCC2)c(NC(=O)Cc2ccc(F)c(Br)c2)c1`, the result was Active.
On the same count and under the same terms, then `CCNC(=O)c1ccc(NC2CCCCC2)c(NC(=O)Cc2cc(OC)c(OC)c(OC)c2)c1`, with “inactive”; and `CCNC(=O)c1ccc(NC2CCCCC2)c(NC(=O)Cc2cccc(OC)c2)c1`, with “Active”.
Still for that read-out and setting: the result for `CCNC(=O)c1ccc(NC2CCCCC2)c(NC(=O)Cc2cccc(Br)c2)c1` reads “inactive”; that for `CCNC(=O)c1ccc(NC2CCCCC2)c(NC(=O)Cc2ccc(C)cc2)c1`, “inactive”.
Take `CCNC(=O)c1ccc(NC2CCCCC2)c(NC(=O)Cc2ccc(OC)c(Br)c2)c1`: the result was inactive.
The same measure, in the same setting: the result for `CCNC(=O)c1ccc(NC2CCCCC2)c(NC(=O)CCc2ccc(OC)cc2)c1` reads “Active”; that for `CCNC(=O)c1ccc(NC2CCCCC2)c(NC(=O)Cc2cc(Br)ccc2Br)c1`, “inactive”.

Tested on in another data set: not listed separately
Briefly: Stability in mouse plasma assessed as parent compound remaining measured after 6 hrs. The class given is ADME, cell-free. Particulars: read-out: Stability.
Regarding `CCOC(=O)c1ccc(NC2CCCCC2)c(N)c1`, the remaining at 6 h was found to be 18%.
Same read-out and setting: the result for `CCNC(=O)c1ccc(NC2CCCCC2)c(NC(=O)/C=C/c2cc(OC)c(OC)cc2OC)c1` reads 48%; that for `CCNC(=O)c1ccc(NC2CCCCC2)c(NCc2ccccc2)c1`, 0%.

A further data set concerns HUVEC. Briefly: Anti-ferroptosis activity against erastin-induced ferroptosis in HUVEC cells assessed as upregulation of intracellular GSH level at 10 uM incubated for 24 hrs. Type of data set: functional, cell-based. Particulars: Homo sapiens.
As for `CCOC(=O)c1ccc(NC2CCCCC2)c(N)c1`, the result was Active.
Still for that read-out and setting: then `CCNC(=O)c1ccc(NC2CCCCC2)c(NC(=O)/C=C/c2cc(OC)c(OC)cc2OC)c1`, with “Active”.

Tested on in the next data set: not listed separately
Put plainly: Metabolic stability in human liver microsomes assessed as half-life. The class given is ADME, Microsome.
Conditions: not given
As to `CCOC(=O)c1ccc(NC2CCCCC2)c(N)c1`, the half-life came to 16.8 min.
On the same count and under the same terms, the result for `CCNC(=O)c1ccc(NC2CCCCC2)c(NC(=O)/C=C/c2cc(OC)c(OC)cc2OC)c1` reads 62.7 min.
`CCNC(=O)c1ccc(NC2CCCCC2)c(NCc2ccccc2)c1`: the half-life was 38.9 min.
